Our source for the IC50 values is patent US12319655B2, “RAF kinase inhibitors and methods of use thereof” (Deciphera Pharmaceuticals, LLC, priority 2021, dated 2025).

The target in experiment [1] is A-Raf kinase (SEQ. ID No: 1) (Homo sapiens (Human), UniProt P10398, Y301D/Y302D). The experiment can be described thus: Biochemical Assay for A-Raf (1). Particulars: Table J, assay version (1); read-out: ARAF (1) IC50. In outline:
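IC50 values were derived by four-parameter sigmoidal fitting of percent inhibition, calculated from reaction rates over the 4–5 h window. Absorbance at 340 nm was tracked for 6 h at 30 °C via coupled PK/LDH NADH depletion. Conditions: 1 mM ATP, 30.1 nM MEK substrate, 5.55 nM A-Raf (Y301D/Y302D), Tris pH 7.5, 1% DMSO.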

For experiment [2], the system named is H2405 cells. As to the kind of experiment: H2405 Cell Proliferation Assay (1). It is filed as cell-based. The conditions noted are these: Homo sapiens, NCI-H2405. In outline: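 Viability was read by resazurin reduction (ex 540 nm, em 600 nm; 5-6 h with 40 μL of 440 μM stock) after 67-72 h compound exposure at 37 °C.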
For experiment [3], the target named is B-Raf kinase (SEQ. ID NO: 2) (Homo sapiens (Human), UniProt P15056). The experiment can be described thus: Biochemical Assay for B-Raf (1). Particulars: Table J, assay version (1); read-out: BRAF (1) IC50. An outline of the steps: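 IC50 derived by four-parameter sigmoidal fit of percent inhibition, normalised to uninhibited and reference-inhibitor controls, using reaction rates over 4–5 h. Coupled spectrophotometric readout (NADH loss at 340 nm, 6 h, 30° C.); 1 mM ATP, 30.1 nM MEK, 0.13 nM B-Raf, pH 7.5 Tris buffer, 1% DMSO.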

Experiment [4] concerns the target C-Raf kinase (SEQ. ID NO: 3) (Homo sapiens (Human), UniProt P04049, Y340D/Y341D). The experiment can be described thus: Biochemical Assay for C-Raf (1). Particulars: Table J, assay version (1); read-out: CRAF (1) IC50. An outline of the steps: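 IC50 values come from a four-parameter fit of percent inhibition, using the reaction rate over 4–5 h of a 6 h continuous 340 nm read at 30 °C. The enzyme mix was C-Raf 0.43 nM, MEK substrate 30.1 nM and ATP 1 mM, in a PK/LDH NADH-coupled format in Tris pH 7.5 with 1% DMSO.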

Sequence of A-Raf kinase (SEQ. ID No: 1) (P10398 other isoform, or with tags, fused parts or gaps Y301D (already in the parent)/Y302D (already in the parent)): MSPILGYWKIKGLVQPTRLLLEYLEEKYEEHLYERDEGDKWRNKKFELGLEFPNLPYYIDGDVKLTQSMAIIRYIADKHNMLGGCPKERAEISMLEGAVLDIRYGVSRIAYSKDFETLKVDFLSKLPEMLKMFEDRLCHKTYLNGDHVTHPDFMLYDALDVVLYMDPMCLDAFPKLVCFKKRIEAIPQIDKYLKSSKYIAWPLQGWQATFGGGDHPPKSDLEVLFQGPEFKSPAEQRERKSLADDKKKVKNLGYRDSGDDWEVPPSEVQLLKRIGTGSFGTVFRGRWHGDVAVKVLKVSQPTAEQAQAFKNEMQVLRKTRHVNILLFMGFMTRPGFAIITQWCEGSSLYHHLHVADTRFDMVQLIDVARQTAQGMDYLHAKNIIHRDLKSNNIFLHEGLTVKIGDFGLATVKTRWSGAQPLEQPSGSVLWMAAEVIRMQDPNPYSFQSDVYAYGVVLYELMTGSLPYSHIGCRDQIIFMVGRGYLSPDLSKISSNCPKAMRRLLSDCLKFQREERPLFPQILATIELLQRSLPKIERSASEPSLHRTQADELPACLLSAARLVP
Sequence of B-Raf kinase (SEQ. ID NO: 2) (P15056 416-766): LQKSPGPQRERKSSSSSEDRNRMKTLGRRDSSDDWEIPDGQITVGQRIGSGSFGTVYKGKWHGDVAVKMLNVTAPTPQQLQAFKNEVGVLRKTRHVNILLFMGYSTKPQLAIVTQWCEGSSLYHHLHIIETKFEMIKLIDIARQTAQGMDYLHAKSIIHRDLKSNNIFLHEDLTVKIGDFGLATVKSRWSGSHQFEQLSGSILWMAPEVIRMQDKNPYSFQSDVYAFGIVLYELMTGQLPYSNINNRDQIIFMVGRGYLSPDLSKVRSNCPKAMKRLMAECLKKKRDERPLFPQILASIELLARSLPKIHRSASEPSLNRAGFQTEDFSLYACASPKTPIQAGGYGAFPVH
Sequence of C-Raf kinase (SEQ. ID NO: 3) (P04049 307-648 Y340D/Y341D): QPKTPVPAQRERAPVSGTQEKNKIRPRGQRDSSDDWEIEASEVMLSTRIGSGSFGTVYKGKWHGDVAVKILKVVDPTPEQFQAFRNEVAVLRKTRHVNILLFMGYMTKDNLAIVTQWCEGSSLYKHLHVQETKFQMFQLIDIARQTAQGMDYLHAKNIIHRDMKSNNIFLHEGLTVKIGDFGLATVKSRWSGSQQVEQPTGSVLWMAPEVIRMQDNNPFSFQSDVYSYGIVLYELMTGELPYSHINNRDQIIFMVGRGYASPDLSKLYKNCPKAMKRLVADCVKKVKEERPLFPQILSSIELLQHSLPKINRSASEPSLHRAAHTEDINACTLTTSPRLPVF

In general, IC50 refers to the concentration that inhibits the measured activity by half. Consider `Cc1ccc(NC(=O)c2ccnc(C(F)(F)F)c2)cc1-c1ccnc(-c2ccnc(N)c2)n1` [Example 122], for which the IC50 in experiment [1] is 1000 to 10000 nM; in experiment [2] it was 1000 to 10000 nM; in experiment [3], at most 100 nM; in experiment [4] it was at most 100 nM.

As to `CC(=O)Nc1cc(-c2cncc(-c3cc(NC(=O)c4cc(C(F)(F)F)ccn4)ccc3C)n2)ccn1` [Example 124], the IC50 in experiment [1] is 1000 to 10000 nM; in experiment [2], at most 100 nM; in experiment [3], at most 100 nM; in experiment [4], at most 100 nM.

Turning to `CC(=O)Nc1cc(-c2cncc(-c3cc(NC(=O)c4cccc(C(C)(C)C#N)c4)ccc3C)n2)ccn1` [Example 125], the IC50 in experiment [1] was 1000 to 10000 nM; in experiment [2] it was at most 100 nM; in experiment [3], at most 100 nM; in experiment [4], at most 100 nM.

Turning to `Cc1ncc(NC(=O)c2ccnc(C(C)(C)C#N)c2)cc1-c1cccc(-c2ncnc3[nH]ncc23)c1` [Example 129], the IC50 in experiment [1] was 1000 to 10000 nM; in experiment [2], 100 to 500 nM; in experiment [3], at most 100 nM; in experiment [4], at most 100 nM.

For `COCC(=O)Nc1cc(-c2cccc(-c3cc(NC(=O)c4ccnc(C(F)(F)F)c4)cnc3C)n2)ccn1` [Example 130], the concentration for half-maximal inhibition (IC50) was 1000 to 10000 nM in experiment [1], 100 to 500 nM in experiment [2], at most 100 nM in experiment [3] and at most 100 nM in experiment [4].

Regarding `Cc1ncc(NC(=O)c2ccnc(C3CC3)c2)cc1-c1cccc(-c2ncnc3[nH]ncc23)c1` [Example 131], the concentration for half-maximal inhibition (IC50) is 1000 to 10000 nM in experiment [1], 1000 to 10000 nM in experiment [2], at most 100 nM in experiment [3] and at most 100 nM in experiment [4].

Consider `Cc1ccc(NC(=O)c2ccnc(C(C)(C)C#N)c2)cc1-c1cccc(-c2ccnc3[nH]ccc23)c1` [Example 133], for which the IC50 in experiment [1] was in the range of 1000 to 10000 nM; in experiment [2], 500 to 1000 nM; in experiment [3], 100 to 500 nM; in experiment [4], 100 to 500 nM.

As to `Cc1ccc(NC(=O)c2ccnc(C(C)(C)C#N)c2)cc1-c1cccc(-c2ccnc3[nH]ncc23)c1` [Example 134], the IC50 was 1000 to 10000 nM in experiment [1], 100 to 500 nM in experiment [2], at most 100 nM in experiment [3] and at most 100 nM in experiment [4].

On to `Cc1ccc(NC(=O)c2ccnc(C(C)(C)C#N)c2)cc1-c1ccnc(-c2ccnc(C(=O)NC3CC3)c2)c1` [Example 162], for which the half-inhibitory concentration (IC50) lay within 1000 to 10000 nM in experiment [1], 100 to 500 nM in experiment [2], 100 to 500 nM in experiment [3] and 100 to 500 nM in experiment [4].

With `CNC(=O)c1cc(-c2cc(-c3cc(NC(=O)c4ccnc(C(C)(C)C#N)c4)ccc3C)cc(C3CC3)n2)ccn1` [Example 163], the IC50 in experiment [1] was 1000 to 10000 nM; in experiment [2], at most 100 nM; in experiment [3] it was 100 to 500 nM; in experiment [4], 100 to 500 nM.

`CNC(=O)c1cc(-c2nccc(-c3cc(NC(=O)c4ccnc(C(C)(C)C#N)c4)c(F)cc3C)n2)ccn1` [Example 166]: the IC50 in experiment [1] was 1000 to 10000 nM; in experiment [2] it was 500 to 1000 nM; in experiment [3], 100 to 500 nM; in experiment [4], 100 to 500 nM.

Consider `CNC(=O)c1cc(-c2cccc(-c3cc(NC(=O)c4ccnc(C(C)(C)C#N)c4)ccc3C)c2)ncn1` [Example 171], for which the IC50 in experiment [1] is 1000 to 10000 nM; in experiment [2], 100 to 500 nM; in experiment [3], at most 100 nM; in experiment [4] it was at most 100 nM.

As to `CNC(=O)c1cc(-c2cc(-c3cc(NC(=O)c4ccnc(C(C)(C)C#N)c4)c(F)cc3C)ccn2)ccn1` [Example 176], the IC50 in experiment [1] was 1000 to 10000 nM; in experiment [2], 100 to 500 nM; in experiment [3], 100 to 500 nM; in experiment [4] it was at most 100 nM.

As for `CNC(=O)c1cc(-c2cc(-c3cc(NC(=O)c4ccnc(C5(C#N)CC5)c4)ccc3C)ncn2)ccn1` [Example 178], the IC50 in experiment [1] is 1000 to 10000 nM; in experiment [2], 100 to 500 nM; in experiment [3] it was at most 100 nM; in experiment [4] it was at most 100 nM.

Regarding `Cc1ccc(NC(=O)c2ccnc(C3(C#N)CC3)c2)cc1-c1ccnc(-c2ccnc(NC(=O)C3CC3)c2)n1` [Example 180], the IC50 in experiment [1] is 100 to 500 nM; in experiment [2] it was at most 100 nM; in experiment [3], at most 100 nM; in experiment [4] it was at most 100 nM.

Consider `Cc1ncc(NC(=O)c2ccnc(C(C)(C)C#N)c2)cc1-c1cccc(-c2cc(NC(=O)C3CC3)ncn2)c1` [Example 181], for which the IC50 in experiment [1] was 1000 to 10000 nM; in experiment [2] it was at most 100 nM; in experiment [3], at most 100 nM; in experiment [4], at most 100 nM.
